Test results published in ChEMBL document CHEMBL3603829, “Metronidazole hydrazone conjugates: Design, synthesis, antiamoebic and molecular docking studies” (Bioorg Med Chem Lett, 2015).
Values belong to the compound of their own block, whether it stands above or below them.

Legend:
Entamoeba histolytica = assay: Antiamoebic activity against trophozoite stage of Entamoeba histolytica HM-1:IMSS after 72 hrs by microdilution method; format: functional, organism-based
[1] = Cytotoxicity against human HeLa cells assessed as cell viability at 208 nM after 48 hrs by MTT assay relative to control; format: cell-based; conditions: read-out: Activity
[2] = Cytotoxicity against human HeLa cells assessed as cell viability at 208 nM after 72 hrs by MTT assay relative to control; format: cell-based; conditions: read-out: Activity
[3] = Cytotoxicity against human HeLa cells assessed as cell viability at 208 nM after 24 hrs by MTT assay relative to control; format: cell-based; conditions: read-out: Activity
[4] = Cytotoxicity against human HeLa cells assessed as cell viability at 387 nM after 48 hrs by MTT assay relative to control; format: cell-based; conditions: read-out: Activity
[5] = Cytotoxicity against human HeLa cells assessed as cell viability at 387 nM after 24 hrs by MTT assay relative to control; format: cell-based; conditions: read-out: Activity
[6] = Cytotoxicity against human HeLa cells assessed as cell viability at 387 nM after 72 hrs by MTT assay relative to control; format: cell-based; conditions: read-out: Activity
[7] = Cytotoxicity against human HeLa cells assessed as cell viability at 360 nM after 24 hrs by MTT assay relative to control; format: cell-based; conditions: read-out: Activity
[8] = Cytotoxicity against human HeLa cells assessed as cell viability at 360 nM after 72 hrs by MTT assay relative to control; format: cell-based; conditions: read-out: Activity
[9] = Cytotoxicity against human HeLa cells assessed as cell viability at 360 nM after 48 hrs by MTT assay relative to control; format: cell-based; conditions: read-out: Activity
[10] = Cytotoxicity against human HeLa cells assessed as cell viability at 490 nM after 24 hrs by MTT assay relative to control; format: cell-based; conditions: read-out: Activity
[11] = Cytotoxicity against human HeLa cells assessed as cell viability at 490 nM after 48 hrs by MTT assay relative to control; format: cell-based; conditions: read-out: Activity
[12] = Cytotoxicity against human HeLa cells assessed as cell viability at 490 nM after 72 hrs by MTT assay relative to control; format: cell-based; conditions: read-out: Activity
[13] = Cytotoxicity against human HeLa cells assessed as cell viability at 435 nM after 24 hrs by MTT assay relative to control; format: cell-based; conditions: read-out: Activity
[14] = Cytotoxicity against human HeLa cells assessed as cell viability at 435 nM after 48 hrs by MTT assay relative to control; format: cell-based; conditions: read-out: Activity
[15] = Cytotoxicity against human HeLa cells assessed as cell viability at 435 nM after 72 hrs by MTT assay relative to control; format: cell-based; conditions: read-out: Activity
[16] = Cytotoxicity against human HeLa cells assessed as cell viability at 370 nM after 72 hrs by MTT assay relative to control; format: cell-based; conditions: read-out: Activity
[17] = Cytotoxicity against human HeLa cells assessed as cell viability at 370 nM after 48 hrs by MTT assay relative to control; format: cell-based; conditions: read-out: Activity
[18] = Cytotoxicity against human HeLa cells assessed as cell viability at 370 nM after 24 hrs by MTT assay relative to control; format: cell-based; conditions: read-out: Activity

SMILES: Cc1ncc([N+](=O)[O-])n1CCOc1ccc(C=O)cc1
IC50 (Entamoeba histolytica): 11500 nM

SMILES: Cc1cc(C)cc(C(=O)N/N=C/c2ccc(OCCn3c([N+](=O)[O-])cnc3C)cc2)c1
IC50 (Entamoeba histolytica): 5960 nM

SMILES: COc1cc(OC)cc(C(=O)N/N=C/c2ccc(OCCn3c([N+](=O)[O-])cnc3C)cc2)c1
IC50 (Entamoeba histolytica): 4390 nM

SMILES: Cc1ncc([N+](=O)[O-])n1CCOc1ccc(/C=N/NC(=O)c2cc(O)cc(O)c2)cc1
viability at 72 h, 0.37 µM [16]: 59.8% | IC50 (Entamoeba histolytica): 370 nM | viability at 48 h, 0.37 µM [17]: 92.1% | viability at 24 h, 0.37 µM [18]: 93.4%

SMILES: COc1cc(C(=O)N/N=C/c2ccc(OCCn3c([N+](=O)[O-])cnc3C)cc2)cc(OC)c1OC
IC50 (Entamoeba histolytica): 2600 nM

Continued, in another order:

IC50 (Entamoeba histolytica): 2020 nM
SMILES: Cc1ncc([N+](=O)[O-])n1CCOc1ccc(/C=N/NC(=O)c2ccccc2)cc1

IC50 (Entamoeba histolytica): 200 nM
SMILES: Cc1ncc([N+](=O)[O-])n1CCOc1ccc(/C=N/NC(=O)c2ccc(Cl)cc2)cc1
viability at 48 h, 0.208 µM [1]: 93.7% | viability at 72 h, 0.208 µM [2]: 65.9% | viability at 24 h, 0.208 µM [3]: 85.9%

IC50 (Entamoeba histolytica): 380 nM
SMILES: Cc1ncc([N+](=O)[O-])n1CCOc1ccc(/C=N/NC(=O)c2ccc(O)cc2)cc1
viability at 48 h, 0.387 µM [4]: 87.1% | viability at 24 h, 0.387 µM [5]: 81.9% | viability at 72 h, 0.387 µM [6]: 54.4%

IC50 (Entamoeba histolytica): 360 nM
SMILES: Cc1ncc([N+](=O)[O-])n1CCOc1ccc(/C=N/NC(=O)c2ccc([N+](=O)[O-])cc2)cc1
viability at 24 h, 0.36 µM [7]: 78.5% | viability at 72 h, 0.36 µM [8]: 68.3% | viability at 48 h, 0.36 µM [9]: 88.9%

IC50 (Entamoeba histolytica): 7120 nM
SMILES: COc1ccc(C(=O)N/N=C/c2ccc(OCCn3c([N+](=O)[O-])cnc3C)cc2)cc1

IC50 (Entamoeba histolytica): 490 nM
SMILES: Cc1ccc(C(=O)N/N=C/c2ccc(OCCn3c([N+](=O)[O-])cnc3C)cc2)cc1
viability at 24 h, 0.49 µM [10]: 66.2% | viability at 48 h, 0.49 µM [11]: 83.8% | viability at 72 h, 0.49 µM [12]: 50.8%

IC50 (Entamoeba histolytica): 430 nM
SMILES: Cc1ncc([N+](=O)[O-])n1CCOc1ccc(/C=N/NC(=O)c2ccc(N)cc2)cc1
viability at 24 h, 0.435 µM [13]: 79.8% | viability at 48 h, 0.435 µM [14]: 80.1% | viability at 72 h, 0.435 µM [15]: 60.3%

IC50 (Entamoeba histolytica): 1980 nM
SMILES: Cc1ncc([N+](=O)[O-])n1CCOc1ccc(/C=N/NC(=O)c2ccc(C(C)(C)C)cc2)cc1
